Data on one compound can be found in patent publication US20190046558A1, “COMPOSITION AND METHODS OF INHIBITING AMYLASE-MEDIATED HYDROLYSIS OF ALPHA (1 to 4)-LINKED GLUCOSE POLYMERS” (priority 2015, published 2019).

Molecules are shown by their SMILES.

The test concerns the target T1, porcine pancreatic α-amylase (Sus scrofa, UniProt P00690).
T1 construct: purchased Megazyme, Inc
T1 sequence (P00690 16-511): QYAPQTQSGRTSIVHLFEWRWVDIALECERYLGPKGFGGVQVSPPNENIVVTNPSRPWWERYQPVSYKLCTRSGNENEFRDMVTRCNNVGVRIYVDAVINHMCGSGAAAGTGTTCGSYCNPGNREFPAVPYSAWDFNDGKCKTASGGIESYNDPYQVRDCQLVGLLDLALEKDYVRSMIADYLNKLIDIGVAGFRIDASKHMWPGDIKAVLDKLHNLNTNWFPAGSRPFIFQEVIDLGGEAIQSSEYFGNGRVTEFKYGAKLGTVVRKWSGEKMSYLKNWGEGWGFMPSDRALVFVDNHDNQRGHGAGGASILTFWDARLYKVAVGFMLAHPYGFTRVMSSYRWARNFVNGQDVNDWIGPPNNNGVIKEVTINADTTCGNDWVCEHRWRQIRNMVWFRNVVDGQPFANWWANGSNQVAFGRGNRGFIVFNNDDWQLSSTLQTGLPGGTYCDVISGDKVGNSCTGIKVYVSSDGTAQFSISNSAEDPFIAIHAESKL
As to the kind of experiment: colorimetric starch-iodine assay of amylase-mediated starch hydrolysis. The settings on record: read-out: Fraction Inhibited (starch-iodine assay). In kind it is biochemical.

Description: The effectiveness of GMα (panel A) and GMβ (panel) to inhibit starch hydrolysis (1 mg/ml) mediated by porcine pancreatic α-amylase (1 μM) is shown as a function of the concentration of GMα and GMβ. The Fraction of Reaction Inhibited was calculated using U/ml values determined from the iodine-starch assay as described by (ref), with U/ml=(As62 control−As62 sample)/(As62 starch×20 min×0.1 ml reaction volume), a value that can be interpreted as mg of starch hydrolyzed per minute. The Fraction of “Unfolded” Starch was calculated in the absence of enzyme as A562 taken in the presence of GMα (panel C) and GMβ (panel D) divided by A562 taken in the absence of the GM. General solution conditions are 20 mM potassium phosphate, pH 7, 30° C.;
A standard curve was constructed using 100 μL of 6 concentrations (0-1.0 mg/ml) and 100 μL of soluble starch. A total of 100 μL of 1 mg/ml of soluble starch+/−varying concentrations of GMs were incubated for 20 minutes at 30° C.+/−5 μL enzyme, for a total concentration of 1 μM PPA/well, and the absorbance read at 520 nm.

On to `C[C@H]1O[C@H](O[C@H]2[C@H](O)[C@@H](O)[C@@H](O[C@H]3[C@H](O)[C@@H](O)C(O)O[C@@H]3CO)O[C@@H]2CO)[C@H](O)[C@@H](O)[C@@H]1N[C@H]1C=C(CO)[C@@H](O)[C@H](O)[C@H]1O` (stereo partly shown) [Acarbose, acarbose], for which the inhibition at 400 µM stood at 79%.
